Here are results for four molecules from article PMC11189026 (Chemical communications (Cambridge, England), 2024).

Data set [1] addresses αvβ3 integrin (Homo sapiens, UniProt P05106+P06756). The format is binding. The following applies: ratio of Ki values, FP competition.
In another data set the test system is aminopeptidase. As to the kind of experiment: Aminopeptidase challenge of cyclised and uncyclised lanthipeptides. The following applies: compared to the uncyclised compounds; Fig. S7.
Data set [2] deals with αvβ3 integrin (UniProt P06756 31-1048; P05106 27-788). As to the kind of experiment: fluorescence polarisation; competition of the lanthipeptides against fluorescently labelled c(RGDyK) for αvβ3 integrin; Ki from competition curves. The following applies: both partners purified. For orientation: Polarisation of emitted light reports the rotation of a fluorescent probe.
Sequence of αvβ3 integrin (UniProt P06756 31-1048; P05106 27-788) (P06756 31-1048, chain 1 of 2): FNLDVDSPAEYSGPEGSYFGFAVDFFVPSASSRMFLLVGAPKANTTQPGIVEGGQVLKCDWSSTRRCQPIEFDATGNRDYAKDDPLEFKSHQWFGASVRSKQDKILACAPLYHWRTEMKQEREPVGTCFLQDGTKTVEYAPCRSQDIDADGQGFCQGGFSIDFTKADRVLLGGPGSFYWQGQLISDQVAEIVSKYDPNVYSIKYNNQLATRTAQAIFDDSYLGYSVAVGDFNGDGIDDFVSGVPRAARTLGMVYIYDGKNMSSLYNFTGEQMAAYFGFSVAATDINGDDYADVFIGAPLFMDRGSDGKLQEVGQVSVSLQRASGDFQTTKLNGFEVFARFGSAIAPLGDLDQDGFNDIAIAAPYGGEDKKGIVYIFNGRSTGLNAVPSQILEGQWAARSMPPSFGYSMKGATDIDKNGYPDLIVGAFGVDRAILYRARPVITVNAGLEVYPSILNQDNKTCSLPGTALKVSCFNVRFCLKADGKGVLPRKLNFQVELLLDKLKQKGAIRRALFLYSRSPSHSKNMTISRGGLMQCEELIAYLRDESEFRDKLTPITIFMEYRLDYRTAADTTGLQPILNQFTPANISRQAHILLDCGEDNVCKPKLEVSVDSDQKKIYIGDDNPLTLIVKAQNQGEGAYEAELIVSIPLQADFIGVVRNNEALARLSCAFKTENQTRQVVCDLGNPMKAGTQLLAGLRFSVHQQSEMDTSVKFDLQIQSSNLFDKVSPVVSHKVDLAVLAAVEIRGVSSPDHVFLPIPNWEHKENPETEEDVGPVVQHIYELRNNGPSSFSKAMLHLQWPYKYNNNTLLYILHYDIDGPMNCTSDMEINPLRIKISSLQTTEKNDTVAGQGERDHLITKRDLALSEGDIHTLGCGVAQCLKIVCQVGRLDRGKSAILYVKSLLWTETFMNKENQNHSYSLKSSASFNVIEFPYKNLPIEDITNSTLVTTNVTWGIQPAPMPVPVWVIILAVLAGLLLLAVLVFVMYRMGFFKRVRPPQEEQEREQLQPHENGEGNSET
Sequence of αvβ3 integrin (UniProt P06756 31-1048; P05106 27-788) (P05106 27-788, chain 2 of 2): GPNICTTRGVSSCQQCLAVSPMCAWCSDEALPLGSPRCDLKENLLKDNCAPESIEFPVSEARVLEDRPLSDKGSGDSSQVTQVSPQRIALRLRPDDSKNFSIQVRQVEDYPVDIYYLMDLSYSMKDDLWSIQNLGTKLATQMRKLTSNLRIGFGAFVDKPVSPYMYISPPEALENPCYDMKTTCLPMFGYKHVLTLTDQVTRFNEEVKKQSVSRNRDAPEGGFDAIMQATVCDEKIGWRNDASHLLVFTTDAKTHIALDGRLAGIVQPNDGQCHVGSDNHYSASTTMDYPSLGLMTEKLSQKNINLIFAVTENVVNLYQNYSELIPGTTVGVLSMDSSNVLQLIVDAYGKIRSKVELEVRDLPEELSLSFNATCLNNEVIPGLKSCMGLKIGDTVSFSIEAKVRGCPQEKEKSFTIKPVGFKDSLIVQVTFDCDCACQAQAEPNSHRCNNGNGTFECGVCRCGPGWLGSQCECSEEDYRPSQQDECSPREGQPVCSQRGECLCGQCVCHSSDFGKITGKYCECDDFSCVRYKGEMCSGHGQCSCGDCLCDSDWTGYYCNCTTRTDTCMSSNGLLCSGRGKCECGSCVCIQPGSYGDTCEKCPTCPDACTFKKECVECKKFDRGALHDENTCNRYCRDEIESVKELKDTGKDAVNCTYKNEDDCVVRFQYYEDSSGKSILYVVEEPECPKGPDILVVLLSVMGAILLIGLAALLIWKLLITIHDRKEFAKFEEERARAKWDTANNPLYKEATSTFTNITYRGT

Sequence of αvβ3 integrin (Homo sapiens, UniProt P05106+P06756) (P06756 31-992 limits assumed): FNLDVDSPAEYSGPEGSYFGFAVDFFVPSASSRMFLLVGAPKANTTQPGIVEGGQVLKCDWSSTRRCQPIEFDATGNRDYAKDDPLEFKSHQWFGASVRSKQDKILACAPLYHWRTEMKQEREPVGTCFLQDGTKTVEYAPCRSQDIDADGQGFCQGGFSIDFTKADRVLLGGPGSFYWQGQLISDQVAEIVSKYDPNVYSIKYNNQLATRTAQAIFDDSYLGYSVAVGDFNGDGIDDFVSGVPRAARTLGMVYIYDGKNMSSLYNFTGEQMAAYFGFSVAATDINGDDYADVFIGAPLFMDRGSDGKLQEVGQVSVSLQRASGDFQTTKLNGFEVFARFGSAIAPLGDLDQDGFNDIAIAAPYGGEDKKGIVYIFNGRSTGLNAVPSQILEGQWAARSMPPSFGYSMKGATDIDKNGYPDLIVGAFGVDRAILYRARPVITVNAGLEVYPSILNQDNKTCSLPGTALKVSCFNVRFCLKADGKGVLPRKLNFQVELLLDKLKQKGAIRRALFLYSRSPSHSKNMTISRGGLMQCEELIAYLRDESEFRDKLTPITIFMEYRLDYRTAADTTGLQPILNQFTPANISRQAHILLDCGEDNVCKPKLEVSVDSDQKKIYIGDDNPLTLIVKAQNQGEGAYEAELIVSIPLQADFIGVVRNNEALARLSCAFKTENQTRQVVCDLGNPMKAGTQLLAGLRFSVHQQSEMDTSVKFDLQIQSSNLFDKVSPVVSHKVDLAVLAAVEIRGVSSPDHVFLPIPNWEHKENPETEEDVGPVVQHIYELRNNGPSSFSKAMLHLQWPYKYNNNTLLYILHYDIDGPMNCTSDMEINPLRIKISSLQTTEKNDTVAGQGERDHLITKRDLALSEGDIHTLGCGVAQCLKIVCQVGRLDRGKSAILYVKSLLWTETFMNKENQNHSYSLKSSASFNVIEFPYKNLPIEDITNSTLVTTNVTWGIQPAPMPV
Sequence of αvβ3 integrin (Homo sapiens, UniProt P05106+P06756) (P05106 27-718 limits assumed): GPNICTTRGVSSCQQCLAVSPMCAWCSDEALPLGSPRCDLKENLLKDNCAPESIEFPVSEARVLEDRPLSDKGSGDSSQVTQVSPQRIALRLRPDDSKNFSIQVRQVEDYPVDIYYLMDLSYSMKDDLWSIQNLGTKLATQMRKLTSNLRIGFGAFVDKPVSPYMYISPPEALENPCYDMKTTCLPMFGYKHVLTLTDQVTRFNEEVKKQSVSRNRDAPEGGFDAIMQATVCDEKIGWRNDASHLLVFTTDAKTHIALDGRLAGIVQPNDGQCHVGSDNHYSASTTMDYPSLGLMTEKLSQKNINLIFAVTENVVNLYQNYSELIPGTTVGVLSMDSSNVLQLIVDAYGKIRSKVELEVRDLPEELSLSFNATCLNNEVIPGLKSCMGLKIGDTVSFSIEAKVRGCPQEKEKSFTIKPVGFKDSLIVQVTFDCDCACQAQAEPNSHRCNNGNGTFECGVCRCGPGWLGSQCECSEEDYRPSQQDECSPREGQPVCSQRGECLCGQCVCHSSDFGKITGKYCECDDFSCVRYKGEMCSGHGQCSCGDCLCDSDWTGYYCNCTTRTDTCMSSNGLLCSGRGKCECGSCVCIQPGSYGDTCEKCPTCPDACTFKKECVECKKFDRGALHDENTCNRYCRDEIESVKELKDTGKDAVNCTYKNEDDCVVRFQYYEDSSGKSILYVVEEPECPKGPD

As to `CSCC[C@@H]1NC(=O)[C@H]2CSC[C@H](NC(=O)[C@H](C)NC(=O)[C@H](C)NC(=O)[C@H](CC(N)=O)NC(=O)[C@@H]3CSC[C@@H](NC(=O)[C@@H]4CCCN4C(=O)[C@@H]4CCCN4C1=O)C(=O)N[C@@H](Cc1ccc(O)cc1)C(=O)N[C@@H](CCCNC(=N)N)C(=O)NCC(=O)N[C@@H](CC(=O)O)C(=O)N[C@@H](CCC(=O)O)C(=O)N3)C(=O)N[C@@H](Cc1c[nH]cn1)C(=O)N[C@@H](CC(N)=O)C(=O)N[C@@H](Cc1c[nH]cn1)C(=O)N[C@@H](C)C(=O)N1CCC[C@H]1C(=O)N2` [c15RGD], the “fold higher affinity for αvβ3 integrin, N-to-C cyclised vs noncyclised” value at αvβ3 integrin [1] stood at 4 fold. Besides, the resistance to aminopeptidase result with aminopeptidase is “resistant to aminopeptidase”. `CSCC[C@@H]1NC(=O)[C@H]2CSC[C@H](NC(=O)[C@H](C)NC(=O)[C@H](C)NC(=O)[C@H](CC(N)=O)NC(=O)[C@@H]3CSC[C@@H](NC(=O)[C@@H]4CCCN4C(=O)[C@@H]4CCCN4C1=O)C(=O)N[C@@H](Cc1ccc(O)cc1)C(=O)N[C@@H](Cc1c[nH]c4ccccc14)C(=O)N[C@@H](CCCNC(=N)N)C(=O)NCC(=O)N[C@@H](CC(=O)O)C(=O)N3)C(=O)N[C@@H](Cc1c[nH]cn1)C(=O)N[C@@H](CC(N)=O)C(=O)N[C@@H](Cc1c[nH]cn1)C(=O)N[C@@H](C)C(=O)N1CCC[C@H]1C(=O)N2` [c16RGD]: the resistance to aminopeptidase result in the data set with aminopeptidase is reported as “resistant to aminopeptidase”.

B1: N-to-C cyclised prochlorosin 16RGD (OaAEP1-cyclised lanthipeptide) (peptide)
chain: cyclo(AACHNHAPSMPPSYWRGDCN)
modifications: thioether (positions not given here); also: lanthionine linkages installed by ProcM, places not given here, thioether: lanthionine
B1: the affinity in the data set with αvβ3 integrin [2] corresponds to a Ki of 0.28 ± 0.03 µM.

B2: N-to-C cyclised prochlorosin 15RGD (OaAEP1-cyclised lanthipeptide) (peptide)
chain: cyclo(AACHNHAPSMPPSYRGDECN)
modifications: thioether (positions not given here); also: lanthionine linkages installed by ProcM, places not given here, thioether: lanthionine
On to B2, for which, in the data set with αvβ3 integrin [2], affinity was put at a Ki of 7.7 ± 1.3 µM.
